Data: EP2408450B1, “ALPHA-(N-SULFONAMIDO)ACETAMIDE COMPOUND AS AN INHIBITOR OF BETA AMYLOID PEPTIDE PRODUCTION” (Bristol-Myers Squibb Company, priority 2009, dated 2010)
Where two headings read alike, the source gives them in different places.

Assay: Compound plasma levels / AUC in rat studies
Assay type: in vivo
Conditions: for concentration at 5 h: female, Sprague-Dawley, rat, plasma, oral
Protocol: All procedures were done in concordance with ACUC guidelines. […] Plasma was obtained after centrifugation. […] CSF samples were centrifuged to remove cells or debris prior to dilution at 1:2 in 4% BSA and frozen for subsequent analysis.
Animals were euthanized 12 or 24 hours after the third dose or 5 hours after the fourth dose. […] Table 2: Summary of Results from 4-day Rat Studies

NC(=O)[C@@H](CCC(F)(F)F)N(Cc1ccc(-c2ncon2)cc1F)S(=O)(=O)c1ccc(Cl)cc1 [(2R)-2-[[(4-chlorophenyl)sulfonyl][[2-fluoro-4-(1,2,4-oxadiazol-3-yl)phenyl]methyl]amino]-5,5,5-trifluoropentanamide]
concentration at 5 h (30 mg/kg/day, Rat Study No. 3, 30 mg/kg/day, group terminated Day 4, read-out: Plasma Conc. 5hr post dose Day 1): 5.9 µM
concentration at 5 h (30 mg/kg/day, Rat Study No. 3, 30 mg/kg/day, group terminated Day 4, read-out: Plasma Conc. 5hr post dose Day 4): 5.6 µM
concentration at 5 h (30 mg/kg/day, Rat Study No. 3, 30 mg/kg/day, group terminated Day 7, read-out: Plasma Conc. 5hr post dose Day 1): 7.2 µM
concentration at 5 h (30 mg/kg/day, Rat Study No. 3, 30 mg/kg/day, group terminated Day 7, read-out: Plasma Conc. 5hr post dose Day 7): 6.2 µM
concentration at 5 h (300 mg/kg/day, Rat Study No. 3, 300 mg/kg/day, group terminated Day 4, read-out: Plasma Conc. 5hr post dose Day 1): 12 µM
concentration at 5 h (300 mg/kg/day, Rat Study No. 3, 300 mg/kg/day, group terminated Day 4, read-out: Plasma Conc. 5hr post dose Day 4): 10 µM
concentration at 5 h (300 mg/kg/day, Rat Study No. 3, 300 mg/kg/day, group terminated Day 7, read-out: Plasma Conc. 5hr post dose Day 1): 14 µM
concentration at 5 h (300 mg/kg/day, Rat Study No. 3, 300 mg/kg/day, group terminated Day 7, read-out: Plasma Conc. 5hr post dose Day 7): 11 µM
compound plasma levels 5 hours after the first and fourth dose (rats, 30 or 300 mg/kg/day): similar
